{
  "source": "paper PMC9268243",
  "about": "“Metabolic Behaviors of Aconitum Alkaloids in Different Concentrations of Aconiti Lateralis Radix Praeparata and Effects of Aconitine in Healthy Human and Long QT Syndrome Cardiomyocytes” (Molecules, 2022)",
  "type_in_all_cases": "cell-based, human",
  "key": {"normal hiPSC-CMs [1]": {"test_system": "normal hiPSC-CMs", "test": "Impedance beating recordings (cell index, beat rate, amplitude), normal hiPSC-CMs", "description": "HiPSCs derived from healthy controls (Cat: NC20010002; Lot.HJ210577NC22), or patients (Cat. NC20300002; Lot. CP210578NC04) diagnosed with LQT syndrome was maintained in HELP4004 (HELP, Nanjing, China) medium on Matrigel-coated (BD Bio science, San Jose, CA, USA) plates at 37 °C; with 5% CO2 (v/v).\nThe cardiomyocytes were seeded on Nanion CardioExcyte 96 Sensor Plates (NSP-96, Nanion Technologies, Munich, Germany) after 0.1% gelatin coating for 1 h. The initial volume was 200 μL per well and contained approximately […]. After seeding, the NSP-96 and CardioExcyte 96 were returned to the incubator. All cells were replaced with fresh medium 200 μL per well every 48 h and tested after 168 h. Cellular index, beat rate, base impedance and beat amplitude were monitored in this experiment.\n(§1) Isoproterenol, nifedipine, and AC were purchased from Sigma-Aldrich, which were resolved in DMSO (Sigma-Aldrich, D2650). Drug compounds final concentration were AC (0.05, 0.5,5 μM), nifedipine (1 μM), isoproterenol (3 μM), respectively. Dilutions were prepared within 60 min of treatment. All the compound solutions were subjected to regular 10 min ultrasound and oscillations to ensure that compounds were completely dissolved. Equal amounts of DMSO (0.1%) were used as the vehicle controls."}, "normal hiPSC-CMs [2]": {"test_system": "normal hiPSC-CMs", "test": "Ca2+ imaging of calcium transients, normal hiPSC-CMs", "conditions": "compared with the control group", "description": "Dissociated day 30–33 post-differentiation hiPSC-CMs (healthy and LQT specific patient) were reseeded Matrigel-coated plate in HELP4004 (HELP) and were treated with 5 μM Fluo-3 AM and 0.02% Pluronic (Life Technologies) in DMEM/F12 (Gibco) for 60 min at 37 °C. Cells were washed with DMEM/F12 without fluorochrome solution afterwards for 30 min, replaced the solution with Tyrode’s solution. Ca^2+ imaging was conducted using Olympus IX71 confocal microscope (Olympus IX71, Tokyo, Japan) and analyzed using Olympus imaging software. Ca^2+ spontaneous transients were obtained using a single cell line scan mode at 37 °C.\nas §1"}, "LQTS hiPSC-CMs": {"test_system": "LQTS hiPSC-CMs", "test": "Whole-cell current-clamp action potential recording, LQTS hiPSC-CMs", "conditions": "LQTS hiPSC-CMs, 0.05, 0.5 and 5 μM, 1 Hz stimulation", "text": "Standard patch-clamp techniques were used to record action potentials, and L-type calcium currents. Composition of intracellular fluid and extracellular fluid were shown in Table 7 and Table 8, respectively. The signal was amplified using an HEKA EPC-10 patch-clamp amplifier (HEKA, Electronics, Ludwigshafen, Germany) and low-pass filtered at 5 kHz. Patch pipettes were fabricated from glass capillaries using a Sutter P-97 microelectrode puller (Novato, CA, USA) and the tips were heat polished with a microforge (NARISHIGE MF-900) to gain a resistance of 2–5 MΩ. Data acquisition was achieved using HEKA Patchmaster (V2x73.2). Data analysis and fit were performed using Clamfit and Graphpad Prism 6.0. The experiment was conducted at 37 °C. One cell can test one or more drugs, or multiple concentrations of the same drug but needs to be rinsed with extracellular fluid between each test. Nifedipine (Sigma) was used as a positive control to ensure cell quality. External solution containing 0.1% DMSO was applied as vehicle to establish the baseline. Recording was done at a temperature-controlled room of 35–37 degrees Celsius.\nIsoproterenol, nifedipine, and AC were purchased from Sigma-Aldrich, which were resolved in DMSO (Sigma-Aldrich, D2650). Drug compounds final concentration were AC (0.05, 0.5,5 μM), nifedipine (1 μM), isoproterenol (3 μM), respectively. […]"}},
  "data": [
    {"smiles": "CCN1C[C@]2(COC)[C@H](O)C[C@H](OC)[C@@]34[C@@H]5C[C@@]6(O)[C@H](OC(=O)c7ccccc7)[C@@H]5[C@@](OC(C)=O)([C@@H]([C@H](OC)[C@H]23)[C@@H]14)[C@@H](O)[C@@H]6OC", "note": "[AC, aconitine]", "values": [
      {"measurement": "amplitude", "setting": "normal hiPSC-CMs [1]; normal hiPSC-CMs", "result": "concentration-dependently decreased"},
      {"measurement": "cell index", "setting": "normal hiPSC-CMs [1]; normal hiPSC-CMs", "result": "no significant effect"},
      {"measurement": "cell beat rate", "setting": "normal hiPSC-CMs [1]; normal hiPSC-CMs, 0.5 μM", "result": "faster after 12 h"},
      {"measurement": "cell contractility", "setting": "normal hiPSC-CMs [1]; normal hiPSC-CMs, 0.5 μM", "result": "decreased cell contractility"},
      {"measurement": "cell frequency", "setting": "normal hiPSC-CMs [1]; normal hiPSC-CMs, 0.5 μM", "result": "increased cell frequency"},
      {"measurement": "cell contractility", "setting": "normal hiPSC-CMs [1]; normal hiPSC-CMs, 5 μM, very weak within 6 h after treatment", "result": "significantly reduced"},
      {"measurement": "cardiomyocyte death", "setting": "normal hiPSC-CMs [1]; normal hiPSC-CMs, 0.05, 0.5 and 5 μM, 48 h observation period", "result": "None of the three concentrations (0.05, 0.5, and 5 μM) AC caused cardiomyocyte death"},
      {"measurement": "contraction force", "setting": "normal hiPSC-CMs [1]; normal hiPSC-CMs, versus control group, concentration not given", "result": "slightly lower"},
      {"measurement": "amplitude and frequency of calcium transient", "setting": "normal hiPSC-CMs [2]", "result": "no significant effect"},
      {"measurement": "APD50", "setting": "LQTS hiPSC-CMs", "result": "concentration-dependently shortened"}
    ]}
  ]
}
